Results on 29 compounds are retold here after PMC6581572 (ChemMedChem, 2019).

In one data set the target is IAV endonuclease (Influenza A virus, UniProt C3W5S0). As to the kind of experiment: High throughput endonuclease assay. The format is biochemical, influenza A/California/04/09 H1N1. Conditions: for LE kcal/(mol·NHA): ligand efficiency, Tables 1 and 2.
Data set [1] relates to influenza A/Puerto Rico/08/1934 H1N1 expressing mCherry (PR8-mCherry). As to conditions: read-out: EC50, antiviral activity; cellular assay, previously reported; cited from earlier work.
Data set [2] in a line: Chemical stability of the isolated compound. The class given is physicochemical. Conditions: isolated tetrazole product, two synthetic routes.

Read-outs that look alike come from different tables or passages of the source.

Consider `N#Cc1ccc(-c2cc(O)c(=O)[nH]c2-c2ccc(F)cc2)cc1` [Compound 1], for which the “LE kcal/(mol·NHA)” value at IAV endonuclease (LE = −RTln(IC50)/NHA) is listed as 0.409 kcal/(mol·NHA).
What is called EC50 is the midpoint of the concentration-response curve. In the case of `O=c1[nH]c(-c2ccc(F)cc2)c(-c2ccc(-c3nnn[nH]3)cc2)cc1O` [Compound 2], the concentration for a half-maximal effect (EC50) in data set [1] was 11 µM.
With `N#Cc1ccc(-c2[nH]c(=O)c(O)cc2-c2ccc(F)cc2)cc1` [Compound 6], the “LE kcal/(mol·NHA)” value at IAV endonuclease (LE = −RTln(IC50)/NHA) is reported as 0.433 kcal/(mol·NHA).
On the same count and under the same terms, then `O=c1[nH]c(-c2ccc(-c3nnn[nH]3)cc2)c(-c2ccc(F)cc2)cc1O` [Compound 7], with 0.403 kcal/(mol·NHA).
The term IC50 denotes the concentration that inhibits the measured activity by half. `N#Cc1ccc(-c2cc(O)c(=O)[nH]c2-c2cccc3ccccc23)cc1` [Compound 8, 4-(5-Hydroxy-2-(naphthalen-1-yl)-6-oxo-1,6-dihydropyridin-3-yl)benzonitrile] yielded an IC50 against IAV endonuclease of 0.22 µM. Moreover, the “LE kcal/(mol·NHA)” value on IAV endonuclease (LE = −RTln(IC50)/NHA) is listed as 0.351 kcal/(mol·NHA).
Consider `O=c1[nH]c(-c2cccc3ccccc23)c(-c2ccc(-c3nnn[nH]3)cc2)cc1O` [Compound 9, 5-(4-(1H-Tetrazol-5-yl)phenyl)-3-hydroxy-6-(naphthalen-1-yl)pyridin-2(1H)-one], for which, on IAV endonuclease (LE = −RTln(IC50)/NHA), the “LE kcal/(mol·NHA)” value is listed as 0.354 kcal/(mol·NHA).
Still for that read-out and setting: then `N#Cc1ccc(-c2cc(O)c(=O)[nH]c2-c2ccc3ccccc3c2)cc1` [Compound 10, 4-(5-Hydroxy-2-(naphthalen-2-yl)-6-oxo-1,6-dihydropyridin-3-yl)benzonitrile], with 0.330 kcal/(mol·NHA).
Take `O=C(O)c1ccc(-c2cc(O)c(=O)[nH]c2-c2ccc(F)cc2)cc1` [Compound 11, 4-(2-(4-Fluorophenyl)-5-hydroxy-6-oxo-1,6-dihydropyridin-3-yl)benzoic acid]: at IAV endonuclease, the IC50 was determined as 0.011 µM. The “LE kcal/(mol·NHA)” value on IAV endonuclease (LE = −RTln(IC50)/NHA) is given as 0.455 kcal/(mol·NHA).
As to `COC(=O)c1ccc(-c2cc(O)c(=O)[nH]c2-c2ccc(F)cc2)cc1` [Compound 12, Methyl 4-(2-(4-fluorophenyl)-5-hydroxy-6-oxo-1,6-dihydropyridin-3-yl)benzoate], the concentration for half-maximal inhibition (IC50) on IAV endonuclease amounted to 0.125 µM.
Compound `Cn1nnnc1-c1ccc(-c2cc(O)c(=O)[nH]c2-c2ccc(F)cc2)cc1` [Compound 13, 6-(4-Fluorophenyl)-3-hydroxy-5-(4-(1-methyl-1H-tetrazol-5-yl)phenyl)pyridin-2(1H)-one] displayed an IC50 against IAV endonuclease of 0.298 µM. Moreover, the “LE kcal/(mol·NHA)” value on IAV endonuclease (LE = −RTln(IC50)/NHA) is 0.331 kcal/(mol·NHA).
In turn, `Cn1nnc(-c2ccc(-c3cc(O)c(=O)[nH]c3-c3ccc(F)cc3)cc2)n1` [Compound 14, 6-(4-Fluorophenyl)-3-hydroxy-5-(4-(2-methyl-2H-tetrazol-5-yl)phenyl)pyridin-2(1H)-one] returned a concentration for half-maximal inhibition (IC50) against IAV endonuclease of 0.138 µM. For the same compound, the “LE kcal/(mol·NHA)” value at IAV endonuclease (LE = −RTln(IC50)/NHA) is recorded as 0.348 kcal/(mol·NHA).
Regarding `NS(=O)(=O)c1ccc(-c2cc(O)c(=O)[nH]c2-c2ccc(F)cc2)cc1` [Compound 15, 4-(2-(4-Fluorophenyl)-5-hydroxy-6-oxo-1,6-dihydropyridin-3-yl)benzenesulfonamide], on IAV endonuclease, the IC50 is 0.347 µM. Besides, the “LE kcal/(mol·NHA)” value at IAV endonuclease (LE = −RTln(IC50)/NHA) was 0.354 kcal/(mol·NHA).
Taken in the same sequence, the figures for `CC(=O)NS(=O)(=O)c1ccc(-c2cc(O)c(=O)[nH]c2-c2ccc(F)cc2)cc1` [Compound 16, N-((4-(2-(4-Fluorophenyl)-5-hydroxy-6-oxo-1,6-dihydropyridin-3-yl)phenyl)sulfonyl)acetamide] were 0.145 µM and 0.335 kcal/(mol·NHA).
On the same counts, the results for `O=c1[nH]c(-c2ccc(F)cc2)c(-c2ccc(-c3cnn[nH]3)cc2)cc1O` [Compound 17, 5-(4-(1H-1,2,3-Triazol-5-yl)phenyl)-6-(4-fluorophenyl)-3-hydroxypyridin-2(1H)-one] are 0.025 µM and 0.401 kcal/(mol·NHA).
On the same counts, the results for `N#Cc1ccc(-c2cc(O)c(=O)[nH]c2Cc2ccc(F)cc2)cc1` [Compound 18, 4-(2-(4-Fluorobenzyl)-5-hydroxy-6-oxo-1,6-dihydropyridin-3-yl)benzonitrile] are 0.507 µM and 0.360 kcal/(mol·NHA).
As to `N#Cc1ccc(-c2cc(O)c(=O)[nH]c2Cc2cccc3ccccc23)cc1` [Compound 19, 4-(5-Hydroxy-2-(naphthalen-1-ylmethyl)-6-oxo-1,6-dihydropyridin-3-yl)benzonitrile], the IC50 on IAV endonuclease worked out at 0.114 µM. In addition, the “LE kcal/(mol·NHA)” value at IAV endonuclease (LE = −RTln(IC50)/NHA) is 0.353 kcal/(mol·NHA).
On the same counts, the results for `N#Cc1ccc(-c2cc(O)c(=O)[nH]c2Cc2ccc3ccccc3c2)cc1` [Compound 20, 4-(5-Hydroxy-2-(naphthalen-2-ylmethyl)-6-oxo-1,6-dihydropyridin-3-yl)benzonitrile] are 0.66 µM and 0.314 kcal/(mol·NHA).
`O=c1[nH]c(Cc2ccc(F)cc2)c(-c2ccc(-c3nnn[nH]3)cc2)cc1O` [Compound 21, 5-(4-(1H-Tetrazol-5-yl)phenyl)-6-(4-fluorobenzyl)-3-hydroxypyridin-2(1H)-one]: half-maximal inhibition at IAV endonuclease (IC50) required 0.026 µM. The “LE kcal/(mol·NHA)” value at IAV endonuclease (LE = −RTln(IC50)/NHA) is 0.385 kcal/(mol·NHA).
For the compound `O=c1[nH]c(Cc2cccc3ccccc23)c(-c2ccc(-c3nnn[nH]3)cc2)cc1O` [Compound 22, 5-(4-(1H-Tetrazol-5-yl)phenyl)-3-hydroxy-6-(naphthalen-1-ylmethyl)pyridin-2(1H)-one], the “LE kcal/(mol·NHA)” value on IAV endonuclease (LE = −RTln(IC50)/NHA) was 0.358 kcal/(mol·NHA).
On the same count and under the same terms, for `O=c1[nH]c(Cc2ccc3ccccc3c2)c(-c2ccc(-c3nnn[nH]3)cc2)cc1O` [Compound 23, 5-(4-(1H-Tetrazol-5-yl)phenyl)-3-hydroxy-6-(naphthalen-2-ylmethyl)pyridin-2(1H)-one] the value was 0.328 kcal/(mol·NHA).
On IAV endonuclease, `O=C(O)c1ccc(-c2[nH]c(=O)c(O)cc2-c2ccc(F)cc2)cc1` [Compound 24, 4-(3-(4-Fluorophenyl)-5-hydroxy-6-oxo-1,6-dihydropyridin-2-yl)benzoic acid] returned a 50% inhibitory concentration (IC50) of 0.055 µM. Besides, the “LE kcal/(mol·NHA)” value on IAV endonuclease (LE = −RTln(IC50)/NHA) is recorded as 0.415 kcal/(mol·NHA).
Taken in the same sequence, the figures for `N#Cc1ccc(-c2[nH]c(=O)c(O)cc2Cc2ccc(F)cc2)cc1` [Compound 25, 4-(3-(4-Fluorobenzyl)-5-hydroxy-6-oxo-1,6-dihydropyridin-2-yl)benzonitrile] were 0.484 µM and 0.361 kcal/(mol·NHA).
Taken in the same sequence, the figures for `N#Cc1ccc(-c2[nH]c(=O)c(O)cc2Cc2cccc3ccccc23)cc1` [Compound 26, 4-(5-Hydroxy-3-(naphthalen-1-ylmethyl)-6-oxo-1,6-dihydropyridin-2-yl)benzonitrile] were 0.173 µM and 0.343 kcal/(mol·NHA).
Taken in the same sequence, the figures for `N#Cc1ccc(-c2[nH]c(=O)c(O)cc2Cc2ccc3ccccc3c2)cc1` [Compound 27, 4-(5-Hydroxy-3-(naphthalen-2-ylmethyl)-6-oxo-1,6-dihydropyridin-2-yl)benzonitrile] were 0.25 µM and 0.335 kcal/(mol·NHA).
For the compound `O=c1[nH]c(-c2ccc(-c3nnn[nH]3)cc2)c(Cc2ccc(F)cc2)cc1O` [Compound 28, 6-(4-(1H-Tetrazol-5-yl)phenyl)-5-(4-fluorobenzyl)-3-hydroxypyridin-2(1H)-one], the IC50 against IAV endonuclease was found to be 0.054 µM. For the same compound, the “LE kcal/(mol·NHA)” value at IAV endonuclease (LE = −RTln(IC50)/NHA) is 0.369 kcal/(mol·NHA).
For the compound `O=c1[nH]c(-c2ccc(-c3nnn[nH]3)cc2)c(Cc2cccc3ccccc23)cc1O` [Compound 29, 6-(4-(1H-Tetrazol-5-yl)phenyl)-3-hydroxy-5-(naphthalen-1-ylmethyl)pyridin-2(1H)-one], the “LE kcal/(mol·NHA)” value on IAV endonuclease (LE = −RTln(IC50)/NHA) is 0.362 kcal/(mol·NHA).
With `O=c1[nH]c(-c2ccc(-c3nnn[nH]3)cc2)c(Cc2ccc3ccccc3c2)cc1O` [Compound 30, 6-(4-(1H-Tetrazol-5-yl)phenyl)-3-hydroxy-5-(naphthalen-2-ylmethyl)pyridin-2(1H)-one], the “LE kcal/(mol·NHA)” value on IAV endonuclease (LE = −RTln(IC50)/NHA) was 0.324 kcal/(mol·NHA).
Regarding `O=C(O[C@@H]1Cc2c(O)cc(O)cc2O[C@@H]1c1cc(O)c(O)c(O)c1)c1cc(O)c(O)c(O)c1` [epigallocatechin gallate, reference compound], the “ligand efficiency of reference inhibitor” value on IAV endonuclease (LE = −RTln(IC50)/NHA) is reported as 0.249 kcal/(mol·NHA). For the same compound, the IC50 at IAV endonuclease (read-out: IC50 of reference inhibitor in this assay, green tea catechin) is 1 µM.
Turning to `O=c1[nH]c(-c2ccc3ccccc3c2)c(-c2ccc(-c3nn[nH]n3)cc2)cc1O` [tetrazole derivative of 10, 6-(2-naphthyl)-5-(p-(5-tetrazoyl)phenyl)-3-hydroxypyridin-2(1H)-one], in data set [2], the “Stability of the isolated product” value is given as “unexpectedly unstable”.
